Experimental data as given in PubChem BioAssay AID330 (DTP/NCI, 2004).
Values joined by “and” are separate entries in the source; they are usually repeats but may differ in a detail not shown here. Equal values may be shown once. Inconclusive results and toxic doses are left out. Rule for the calls: active = survival T/C of 150% or more; inactive = T/C below 125% in these data.

Test system: P388 leukemia ip, CD2F1 mice, survival T/C
Test: NCI In Vivo Anticancer Drug Screen. Data for tumor model P388 Leukemia (intraperitoneal) in CD2F1 (CDF1) mice
Settings: endpoint: median survival time, higher = longer survival
How it was run: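 Mice carrying the transplanted tumor received test compound or vehicle. Survival was recorded in each group, and the value is the treated-group measurement divided by that of the vehicle-treated control group.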

[1] = dose: 50.0 mg/kg/injection, schedule: Q01DX009 (ip), vehicle: Klucel (hydroxypropylcellulose) (HPC)
[2] = dose: 100.0 mg/kg/injection, schedule: Q01DX009 (ip), vehicle: Klucel (hydroxypropylcellulose) (HPC)
[3] = dose: 50.0 mg/kg/injection, schedule: Q01DX009 (ip), vehicle: saline
[4] = dose: 100.0 mg/kg/injection, schedule: Q01DX009 (ip), vehicle: saline
[5] = dose: 200.0 mg/kg/injection, schedule: Q01DX009 (ip), vehicle: saline
[6] = dose: 100.0 mg/kg/injection, schedule: Q04DX002 (ip), vehicle: saline with Tween-80
[7] = dose: 200.0 mg/kg/injection, schedule: Q04DX002 (ip), vehicle: saline with Tween-80
[8] = dose: 50.0 mg/kg/injection, schedule: Q04DX003 (ip), vehicle: saline with Tween-80
[9] = dose: 100.0 mg/kg/injection, schedule: Q04DX003 (ip), vehicle: saline with Tween-80
[10] = dose: 200.0 mg/kg/injection, schedule: Q04DX003 (ip), vehicle: saline with Tween-80
[11] = dose: 60.0 mg/kg/injection, schedule: Q01DX005 (ip), vehicle: Klucel (hydroxypropylcellulose) (HPC)
[12] = dose: 120.0 mg/kg/injection, schedule: Q01DX005 (ip), vehicle: Klucel (hydroxypropylcellulose) (HPC)
[13] = dose: 240.0 mg/kg/injection, schedule: Q01DX005 (ip), vehicle: Klucel (hydroxypropylcellulose) (HPC)
[14] = dose: 60.0 mg/kg/injection, schedule: Q01DX005 (ip), vehicle: saline with Tween-80
[15] = dose: 120.0 mg/kg/injection, schedule: Q01DX005 (ip), vehicle: saline with Tween-80
[16] = dose: 240.0 mg/kg/injection, schedule: Q01DX005 (ip), vehicle: saline with Tween-80
[17] = dose: 50.0 mg/kg/injection, schedule: Q01DX005 (ip), vehicle: saline with Tween-80
[18] = dose: 100.0 mg/kg/injection, schedule: Q01DX005 (ip), vehicle: saline with Tween-80
[19] = dose: 200.0 mg/kg/injection, schedule: Q01DX005 (ip), vehicle: saline with Tween-80

Measured: T/C

CC(C)=NOCc1ccccc1
inactive: dose: 2.5 mg/kg/injection, schedule: Q01DX009 (ip), vehicle: Klucel (hydroxypropylcellulose) (HPC) 119 % of control | dose: 5.0 mg/kg/injection, schedule: Q01DX009 (ip), vehicle: Klucel (hydroxypropylcellulose) (HPC) 120 % of control | dose: 10.0 mg/kg/injection, schedule: Q01DX009 (ip), vehicle: Klucel (hydroxypropylcellulose) (HPC) 117 % of control | [1] 94 % of control | [2] 98 % of control

C(=N\Nc1nc2ccccc2s1)/c1cccs1
inactive: [3] 100 % of control | [4] 87 % of control | [5] 106 % of control

CC(=O)CCC1C=CC(=O)O1 (stereo not given)
inactive: dose: 60.0 mg/kg/injection, schedule: Q01DX005 (ip), vehicle: saline 112 % of control | dose: 120.0 mg/kg/injection, schedule: Q01DX005 (ip), vehicle: saline 103 % of control | dose: 240.0 mg/kg/injection, schedule: Q01DX005 (ip), vehicle: saline 111 % of control

CC1C(=O)CCC2(C)CCC3C(OC(=O)C3(C)[Se]c3ccccc3)C12 (stereo not given)
inactive: [6] 97 % of control | [7] 98 % of control

CCN(CC)c1ccc(/C=C2\CCc3ccccc3C2=O)cc1
inactive: [1] 108 % of control | [2] 111 % of control | dose: 200.0 mg/kg/injection, schedule: Q01DX009 (ip), vehicle: Klucel (hydroxypropylcellulose) (HPC) 106 % of control

Nc1ncc(CCCOc2ccccc2)c(=O)[nH]1
inactive: dose: 100.0 mg/kg/injection, schedule: Q01DX001 (ip), vehicle: saline with Tween-80 90 % of control | dose: 200.0 mg/kg/injection, schedule: Q01DX001 (ip), vehicle: saline with Tween-80 90 % of control | dose: 400.0 mg/kg/injection, schedule: Q01DX001 (ip), vehicle: saline with Tween-80 90 % of control

CC(C)OC(=O)Nc1nc2ccc(C(=O)OC(C)C)cc2[nH]1
inactive: [8] 102 % of control | [9] 104 % of control and 116 % of control | [10] 112 % of control and 113 % of control

CNc1ccccc1Sc1cnc(N)nc1C
inactive: [11] 94 % of control | [12] 91 % of control | [13] 90 % of control

COc1ccc(-n2c(SC)nccc2=O)cc1
inactive: dose: 100.0 mg/kg/injection, schedule: Q04DX003 (ip), vehicle: Klucel (hydroxypropylcellulose) (HPC) 100 % of control | dose: 200.0 mg/kg/injection, schedule: Q04DX003 (ip), vehicle: Klucel (hydroxypropylcellulose) (HPC) 99 % of control

COc1ccc(-n2c(C)nc3c(cnn3CN3CCCCC3)c2=O)cc1
inactive: [11] 102 % of control | [12] 102 % of control | [13] 94 % of control

O=C1C(O)=C(O)C(=O)c2ccccc21
inactive: [1] 90 % of control

COc1cc(C(Nc2ccccn2)c2cc3c(cc2O)OCO3)cc(OC)c1O (stereo not given)
inactive: [11] 91 % of control | [12] 91 % of control | [13] 94 % of control

COC(=O)C1CC(=O)N(C)c2sc(C)c(C)c2C1=O (stereo not given)
inactive: dose: 25.0 mg/kg/injection, schedule: Q01DX009 (ip), vehicle: saline with Tween-80 103 % of control | dose: 50.0 mg/kg/injection, schedule: Q01DX009 (ip), vehicle: saline with Tween-80 93 % of control | dose: 100.0 mg/kg/injection, schedule: Q01DX009 (ip), vehicle: saline with Tween-80 94 % of control | [9] 97 % of control | dose: 200.0 mg/kg/injection, schedule: Q01DX009 (ip), vehicle: saline with Tween-80 94 % of control | [10] 93 % of control

COC(=O)c1cc(-c2ccccc2Cl)n2c(N)nnc2n1
inactive: [14] 118 % of control | [15] 105 % of control | [16] 101 % of control

C/C(=N\N=C(\[Se])N1CC(C)OC(C)C1)c1ccccn1 (stereo not given)
inactive: dose: 10.0 mg/kg/injection, schedule: Q04DX003 (ip), vehicle: saline with Tween-80 100 % of control | dose: 25.0 mg/kg/injection, schedule: Q04DX003 (ip), vehicle: saline with Tween-80 106 % of control | [8] 107 % of control | [9] 109 % of control | [10] 121 % of control

Cn1c(=O)ccc2ccccc21
inactive: dose: 25.0 mg/kg/injection, schedule: Q04DX002 (ip), vehicle: saline with Tween-80 103 % of control | dose: 50.0 mg/kg/injection, schedule: Q04DX002 (ip), vehicle: saline with Tween-80 100 % of control | dose: 50.0 mg/kg/injection, schedule: Q04DX003 (ip), vehicle: saline 108 % of control | [6] 108 % of control | dose: 100.0 mg/kg/injection, schedule: Q04DX003 (ip), vehicle: saline 104 % of control and 113 % of control

C=C1CCN(c2ccccc2Cl)C1=O
inactive: dose: 4.0 mg/kg/injection, schedule: Q01DX009 (ip), vehicle: saline + alcohol 100 % of control and 103 % of control and 109 % of control | dose: 8.0 mg/kg/injection, schedule: Q01DX009 (ip), vehicle: saline + alcohol 100 % of control and 104 % of control and 106 % of control | dose: 16.0 mg/kg/injection, schedule: Q01DX009 (ip), vehicle: saline + alcohol 100 % of control and 112 % of control | dose: 32.0 mg/kg/injection, schedule: Q01DX009 (ip), vehicle: saline + alcohol 99 % of control and 100 % of control and 107 % of control | dose: 64.0 mg/kg/injection, schedule: Q01DX009 (ip), vehicle: saline + alcohol 104 % of control and 105 % of control

COc1ccc2c(c1)CCc1c-2nc[nH]c1=O
inactive: [6] 103 % of control | [7] 96 % of control | dose: 400.0 mg/kg/injection, schedule: Q04DX002 (ip), vehicle: saline with Tween-80 96 % of control

S=C(SSC(=S)N(Cc1ccccc1)Cc1ccccc1)N(Cc1ccccc1)Cc1ccccc1
inactive: [14] 96 % of control | [15] 103 % of control | [16] 96 % of control

Cc1ccc(S(=O)(=O)CC(=O)CC(=O)C(=O)NC2C3CC4CC(C3)CC2C4)cc1 (stereo not given)
inactive: [17] 98 % of control | [18] 90 % of control | [19] 90 % of control

N#CN=[N+]([O-])c1ccc(Cl)cc1
inactive: dose: 3.12 mg/kg/injection, schedule: Q01DX009 (ip), vehicle: Klucel (hydroxypropylcellulose) (HPC) 107 % of control | dose: 6.25 mg/kg/injection, schedule: Q01DX009 (ip), vehicle: Klucel (hydroxypropylcellulose) (HPC) 114 % of control | dose: 6.25 mg/kg/injection, schedule: Q04DX003 (ip), vehicle: Klucel (hydroxypropylcellulose) (HPC) 97 % of control | dose: 12.5 mg/kg/injection, schedule: Q01DX009 (ip), vehicle: Klucel (hydroxypropylcellulose) (HPC) 98 % of control | dose: 12.5 mg/kg/injection, schedule: Q04DX003 (ip), vehicle: Klucel (hydroxypropylcellulose) (HPC) 95 % of control | dose: 25.0 mg/kg/injection, schedule: Q04DX003 (ip), vehicle: Klucel (hydroxypropylcellulose) (HPC) 98 % of control

O=c1[nH]c(=O)c2[nH]c(N=Nc3ccc(S(=O)(=O)O)cc3)nc2[nH]1
inactive: dose: 50.0 mg/kg/injection, schedule: Q01DX005 (ip), vehicle: Klucel (hydroxypropylcellulose) (HPC) 95 % of control | dose: 100.0 mg/kg/injection, schedule: Q01DX005 (ip), vehicle: Klucel (hydroxypropylcellulose) (HPC) 99 % of control | dose: 200.0 mg/kg/injection, schedule: Q01DX005 (ip), vehicle: Klucel (hydroxypropylcellulose) (HPC) 100 % of control

C=C1C(=O)O[C@@H]2[C@H]3C(C)=CC[C@H]3C(C)=CC[C@@H]12
inactive: dose: 100.0 mg/kg/injection, schedule: Q01DX001 (ip), vehicle: saline 106 % of control | dose: 200.0 mg/kg/injection, schedule: Q01DX001 (ip), vehicle: saline 103 % of control | dose: 400.0 mg/kg/injection, schedule: Q01DX001 (ip), vehicle: saline 107 % of control

Cc1cccc(C(C)(C)C)c1NC(=O)CCc1nnc(N)n1N
inactive: [17] 111 % of control | [18] 100 % of control | [19] 101 % of control

C1=CC2C=CC1C2c1ccccc1 (stereo not given)
inactive: [3] 108 % of control and 86 % of control | [4] 105 % of control and 111 % of control | [5] 116 % of control and 98 % of control

NC(CCC(=O)NC(CS)C(=O)NCC(=O)O)C(=O)O (stereo not given)
inactive: dose: 25.0 mg/kg/injection, schedule: Q01DX005 (ip), vehicle: saline 102 % of control | dose: 50.0 mg/kg/injection, schedule: Q01DX005 (ip), vehicle: saline 104 % of control and 108 % of control | dose: 100.0 mg/kg/injection, schedule: Q01DX005 (ip), vehicle: saline 98 % of control and 94 % of control | dose: 200.0 mg/kg/injection, schedule: Q01DX005 (ip), vehicle: saline 102 % of control | dose: 400.0 mg/kg/injection, schedule: Q01DX005 (ip), vehicle: saline 93 % of control
